# Reference: patent US20130143738A1, “HERBICIDAL COMPOSITION CONTAINING CERTAIN PYRIDINE CARBOXYLIC ACIDS AND (2,4-DICHLOROPHENOXY)ACETIC ACID” (DOW AGROSCIENCES LLC, priority 2011, published 2013)
# Where two headings read alike, the source gives them in different places.
# What was measured:
# [1] = system: PANDI - fall panicum (Panicum dichotomiflorum Michx.); test: Greenhouse evaluation of postemergence herbicidal activity, foliar treatment, PANDI; type: in vivo; settings: 16 DAA
# Excerpt: (§1) Seeds or nutlets of the desired test plant species were planted in a soil matrix prepared by mixing a sandy loam soil (28.6 percent silt, 18.8 percent clay, and 52.6 percent sand, with a pH of about 5.8 and an organic matter content of about 1.8 percent) and calcareous grit in an 80 to 20 ratio. The soil matrix was contained in plastic pots with a surface area of 84.6 cm^2 and a volume of 560 cubic centimeters (cm^3). When required to ensure good germination and healthy plants, a fungicide treatment and/or other chemical or physical treatment was applied. The plants were grown for 7-31 days (d) in a greenhouse with an approximate 15 hour (h) photoperiod which was maintained at about 23-29° C. during the day and 22-28° C. during the night. Nutrients (Peters Excel® 15-5-15 5-Ca2-Mg) and water were added on a regular basis and supplemental lighting was provided with overhead metal halide 1000-Watt lamps as necessary. The plants were employed for testing when they reached the first, second, or third true leaf stage.
# Treatment requirements were calculated based upon the rates being tested, the concentration of active ingredient or acid equivalent in the formulation, and a 12 mL application volume at a rate of 187 L/ha.
# (§2) Treatments consisted of the potassium (K^+) salt of 4-amino-3-chloro-6-(4-chloro-2-fluoro-3-methoxy-phenyl)pyridine-2-carboxylic acid formulated as an SL or the benzyl ester of 4-amino-3-chloro-6-(4-chloro-2-fluoro-3-methoxy-phenyl)pyridine-2-carboxylic acid as technical material, and 2,4-D dimethylamine (DMA) salt applied as Weedar® 64 EC alone and in combination. Forms of the pyridine carboxylic acid and 2,4-D were applied on an acid equivalent basis.
# (§3) For treatments comprised of formulated compounds, measured amounts of compounds were placed individually in 25 mL glass vials and diluted in a volume of 1.5% (v/v) Agri-dex® crop oil concentrated to obtain 6× stock solutions. […] Application solutions were prepared by adding an appropriate amount of each stock solution (typically 2 mL) and diluted to the appropriate final concentrations with the addition of an appropriate amount of an aqueous mixture of 1.5% (v/v) crop oil concentrate and an appropriate amount of water so that the final spray solutions contained 1.25+/−0.05% (v/v) crop oil concentrate.
# For treatments comprised of formulated and technical compounds, weighed amounts of the technical materials were placed individually in 25 mL glass vials and dissolved in a volume of 97:3 v/v acetone/DMSO to obtain 6× stock solutions, and measured amounts of the formulated compounds were placed individually in 25 mL glass vials and diluted in a volume of 1.5% (v/v) crop oil concentrate to obtain 6× stock solutions. […]
# [2] = system: ELEIN - goosegrass (Eleusine indica (L.) Gaertn.); settings: 14 DAA, greenhouse, foliar
# Description: as §1, with “When required to ensure good germination and healthy plants, a fungicide treatment and/or other chemical or physical treatment was applied.” left out
# as §2, §3
# (§4) For treatments comprised of formulated and technical compounds, weighed amounts of the technical materials were placed individually in 25 mL glass vials and dissolved in a volume of 97:3 v/v acetone/DMSO to obtain 6× stock solutions, and measured amounts of the formulated compounds were placed individually in 25 mL glass vials and diluted in a volume of 1.5% (v/v) crop oil concentrate to obtain 6× stock solutions. […] Application solutions were prepared by adding an appropriate amount of each stock solution (eg, 2 mL) and diluted to the appropriate final concentrations with the addition of an appropriate amount of an aqueous mixture of 1.5% (v/v) crop oil concentrate and an appropriate amount of water so that the final spray solutions contained 1.25% (v/v) crop oil concentrate. The final acetone and DMSO concentrations of the application solutions containing technical material were 16.2% and 0.5%, respectively.
# (§5) All stock solutions and applications solutions were visually inspected for compound compatibility prior to application. Compound requirements are based upon a 12 mL application volume at a rate of 187 liters per hectare (L/ha). Application solutions were applied to the plant material with an overhead Mandel track sprayer equipped with 8002E nozzles calibrated to deliver 187 L/ha over an application area of 0.503 square meters (m^2) at a spray height of 18 to 20 inches above the average plant canopy height. Control plants were sprayed in the same manner with the solvent blank.
# (§6) The treated plants and control plants were placed in a greenhouse as described above and watered by sub-irrigation to prevent wash-off of the test compounds. After approximately 2 weeks, the condition of the test plants as compared with that of the untreated plants was determined visually and scored on a scale of 0 to 100 percent where 0 corresponds to no injury and 100 corresponds to complete kill.
# [3] = system: LOLMU - Italian ryegrass (Lolium perenne L. ssp. multiflorum (Lam.) Husnot); settings: 14 DAA, greenhouse, foliar
# Description: as §1, with “When required to ensure good germination and healthy plants, a fungicide treatment and/or other chemical or physical treatment was applied.” left out
# as §2, §3, §4, §5, §6
# [4] = system: MEOPA - escoba blanca (Melochia parviflora); test: Field evaluation of postemergence herbicidal activity of mixtures in range and pasture (Colombia); type: in vivo; settings: 14 DAA
# Description: Field trials were conducted in pastures in Colombia using standard herbicide small plot research methodology. Plot size was typical for small plot research, varying from 2 meters (m) wide by 6 m long. There were 4 replicates per treatment. Soil type ranged from medium to heavy soil texture. Perennial pastures were sown by hand direct dry seeding as per normal local cultural practices. The pastures were grown using normal cultural practices for fertilization and maintenance to ensure good growth of the pastures and the weeds.
# Treatments were applied by backpack sprayer using either compressed air or carbon dioxide (CO2), at spray pressures from […]. Spray tips were typically Flat Fan Teejet nozzles, such as TJ8003. Spray volumes used were 400 liters per hectare (L/ha). MEOPA plant size at application varied from 70 to 80 centimeters (cm) tall active growth at flowering stage.
# For each treatment, the appropriate formulated product amount to treat the plot area, to achieve the desired application rate, based on unit area of application (hectare), was calculated, measured, and mixed in water prior to applying with the backpack sprayer. Treatments were rated as compared to the untreated control plots. 2,4-D was used as Invesamina 480 SL®. Compound I was formulated as a 10% weight percent active ingredient (wt ai %—100 grams ai per L (g ai/L); 95.94 g ae/L) suspension concentrate (SC) of the corresponding methyl ester.
# For both Example 1 and Example 2, the Colby equation was used to determine the herbicidal effects expected from the mixtures (Colby, S. R. Calculation of the synergistic and antagonistic response of herbicide combinations. Weeds 1967, 15, 20-22.).
# The following equation was used to calculate the expected activity of mixtures containing two active ingredients, A and B:
# A=observed efficacy of active ingredient A at the same concentration as used in the mixture.
# B=observed efficacy of active ingredient B at the same concentration as used in the mixture.
# [5] = 2,4-D dimethyl amine 52.5 g ae/ha alone
# [6] = 2,4-D dimethyl amine 105 g ae/ha alone
# [7] = potassium salt 3.75 g ae/ha alone
structure (smiles),measurement,setting,value
"CNC.O=C(O)COc1ccc(Cl)cc1Cl [2,4-D (Dimethyl Amine), 2,4-D dimethylamine (DMA) salt]",PANDI (% Control) Obs,[1]; [5],0%
same,PANDI (% Control) Obs,[1]; [6],0%
same,PANDI (% Control) Obs,"[1]; 2,4-D dimethyl amine 210 g ae/ha alone",0%
same,ELEIN (% Control) Obs,[2]; [5],0%
same,ELEIN (% Control) Obs,[2]; [6],0%
same,LOLMU (% Control) Obs,[3]; [5],0%
same,LOLMU (% Control) Obs,[3]; [6],0%
"O=C(O)COc1ccc(Cl)cc1Cl [2,4-D, (2,4-dichlorophenoxy)acetic acid]",MEOPA (% Control) Obs,"[4]; 2,4-D 480 g ae/ha alone",3.8%
"COc1c(Cl)ccc(-c2cc(N)c(Cl)c(C(=O)OCc3ccccc3)n2)c1F [Pyridine Carboxylic Acid (Benzyl Ester), benzyl ester of 4-amino-3-chloro-6-(4-chloro-2-fluoro-3-methoxy-phenyl)pyridine-2-carboxylic acid]",ELEIN (% Control) Obs,[2]; benzyl ester 3.75 g ae/ha alone,0%
same,ELEIN (% Control) Obs,[2]; benzyl ester 7.5 g ae/ha alone,25%
"COC(=O)c1nc(-c2ccc(Cl)c(OC)c2F)cc(N)c1Cl [Pyridine Carboxylic Acid (Methyl Ester), halauxifen-methyl]",MEOPA (% Control) Obs,[4]; methyl ester 17.5 g ae/ha alone,48.5%
same,MEOPA (% Control) Obs,[4]; methyl ester 35 g ae/ha alone,63.1%
COc1c(Cl)ccc(-c2cc(N)c(Cl)c(C(=O)[O-])n2)c1F.[K+] [potassium (K^+) salt of 4-amino-3-chloro-6-(4-chloro-2-fluoro-3-methoxy-phenyl)pyridine-2-carboxylic acid],PANDI (% Control) Obs,[1]; [7],75%
same,LOLMU (% Control) Obs,[3]; [7],15%
same,LOLMU (% Control) Obs,[3]; potassium salt 7.5 g ae/ha alone,35%
